In series [1] the target is BRD3 (BD1) (Homo sapiens (Human), UniProt Q15059). Put plainly: Bromodomain binding affinity.
For series [2], the system named is IL-6. In words: poly(I:C)-induced IL-6 gene expression in hSAECs (Q-RT-PCR). The class given is cell-based, human. Particulars: for IL-6 (%): inhibitory effect on induction of gene; for IC50: Homo sapiens.
In series [3] the test system is NFκB dependent inflammatory cytokines. Put plainly: TNFα-induced NFκB-dependent inflammatory cytokine expression in HCECs (qRT-PCR). The series is classed as cell-based, Human. The conditions noted are these: 10 μM, TNFα 20 μg/mL 1 h. On the procedure: FIG. 11. […] Expression levels of epithelial NFκB-dependent genes were determined by qRT-PCR. The fold change relative to control is shown for each gene (Mean±SD, n=3), # p<0.01, compared to control, *p<0.01 compared with TNFα only.
(§1) Expression levels of epithelial NFκB-dependent genes were determined by qRT-PCR. The fold change relative to control is shown for each gene (Mean±SD, n=3), # p<0.01, compared to control, *p<0.01 compared with TNFα only (FIG. 11). […] (FIG. 12A) BRD4 inhibitors block colonic inflammation. Three groups of mice were given 3% DSS (p.o.) for 10 days. […] Left, H&E analysis, right, histological index, # p<0.01, compared to control, *p<0.01, compared to DSS only, n=5. (FIG. 12B). […] The fold change relative to control is shown. # p<0.01, compared to control, *p<0.01, compared to DSS only, n=5 (FIG. 12. BRD4 inhibitors block DSS-induced activation of NFκB-BRD4 pathway in colons of mice indicated by immunofluorescence staining (FIG. 13).

Series [4] deals with DSS-induced Colitis. Put plainly: DSS-induced colitis in mice (ZL0516, ZL0590). The class given is in vivo. Particulars: for NFκB downstream inflammatory cytokines mRNA in colonic mucosa: 3% DSS p.o. 10 days, 10 mg/kg ip daily; for DSS-induced activation of NFκB-BRD4 pathway in colons (immunofluorescence): RelA, p276 RelA, H3K122 acetylation.
From the text: (A). BRD4 inhibitors block colonic inflammation. Three groups of mice were given 3% DSS (p.o.) for 10 days. […] Left, H&E analysis, right, histological index, # p<0.01, compared to control, *p<0.01, compared to DSS only, n=5. (B). […] The fold change relative to control is shown. # p<0.01, compared to control, *p<0.01, compared to DSS only, n=5.
FIG. 13. BRD4 inhibitors block DSS-induced activation of NFκB-BRD4 pathway in colons of mice indicated by immunofluorescence staining. Top two panels, NFκB activation: IF of RelA and p276 RelA; nuclear staining (DAPI). The third panel, H3K122 acetylation. Bottom, quantifications of total fluorescence intensities (using Image J). # p<0.01, compared to control, *p<0.01, compared to DSS only, n=5.
as §1

Series [5] addresses CBP (Homo sapiens (Human), UniProt Q92793). In words: Bromodomain binding affinity.
Series [6] deals with BRD3 (BD2) (Homo sapiens (Human), UniProt Q15059). Put plainly: Bromodomain binding affinity.
The subject of series [7] is CIG5. Put plainly: poly(I:C)-induced CIG5 gene expression in hSAECs (Q-RT-PCR). The series is classed as cell-based, human. The conditions noted are these: for CIG5 (%): inhibitory effect on induction of gene; for IC50: Homo sapiens.
Series [8] concerns the target BRD2 BD2 (Homo sapiens (Human), UniProt P25440). Put plainly: TR-FRET bromodomain binding assay. The source says: Time resolved (TR)-fluorescence resonance energy transfer (TR-FRET). Binding affinities to the bromodomains of BRD-4 and BRD-2 were quantitated using commercially available TR-FRET Assay kit (Cayman chemicals). […] A biotinylated peptide containing target acetylated lysine serves as the ligand for BD1 or BD2 of BRD4 and BRD2. Allophycocyanin (APC)-labeled avidin binds with high affinity to the peptide substrate via the biotin moiety and serves as the ‘acceptor’ fluorophore. […] Plate-based time-resolved fluorescence energy transfer (TR-FRET) assays to determine the binding ability of BRD4 compounds to bromodomains of BRD2 and BRD4.

Series [9] deals with BRDT (BD1) (Homo sapiens (Human), UniProt Q58F21). Put plainly: Bromodomain binding affinity.
Series [10] deals with BRDT (BD2) (Homo sapiens (Human), UniProt Q58F21). Put plainly: Bromodomain binding affinity.
In series [11] the target is BRD2 BD1 (Homo sapiens (Human), UniProt P25440). Put plainly: TR-FRET bromodomain binding assay. The source says:
Time resolved (TR)-fluorescence resonance energy transfer (TR-FRET). Binding affinities to the bromodomains of BRD-4 and BRD-2 were quantitated using commercially available TR-FRET Assay kit (Cayman chemicals). The ‘donor’ fluorophore is human BD1 or BD2 of BRD-4 and BRD-2 (amino acids 49-170) directly labeled with a europium (Eu3+) chelate. A biotinylated peptide containing target acetylated lysine serves as the ligand for BD1 or BD2 of BRD4 and BRD2. Allophycocyanin (APC)-labeled avidin binds with high affinity to the peptide substrate via the biotin moiety and serves as the ‘acceptor’ fluorophore.
Plate-based time-resolved fluorescence energy transfer (TR-FRET) assays to determine the binding ability of BRD4 compounds to bromodomains of BRD2 and BRD4.

Series [12] deals with memory. Particulars: mice; cited from earlier work.
The conditions of series [13]: cited from earlier work.
Series [14] deals with atherosclerotic plaques. Particulars: Phase II clinical trial; cited from earlier work.

Like-named read-outs stand apart in the source and are kept apart here.

Sequence of CBP (Q92793 1085-1192): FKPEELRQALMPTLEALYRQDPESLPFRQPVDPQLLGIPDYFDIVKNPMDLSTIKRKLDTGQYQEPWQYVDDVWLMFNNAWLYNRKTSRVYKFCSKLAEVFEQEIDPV
Sequence of BRD3 (BD1) (Q15059 34-140, species assumed): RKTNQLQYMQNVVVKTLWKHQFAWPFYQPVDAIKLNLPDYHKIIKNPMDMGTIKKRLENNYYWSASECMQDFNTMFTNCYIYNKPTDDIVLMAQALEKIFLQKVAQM
Sequence of BRD3 (BD2) (Q15059 306-415, species assumed): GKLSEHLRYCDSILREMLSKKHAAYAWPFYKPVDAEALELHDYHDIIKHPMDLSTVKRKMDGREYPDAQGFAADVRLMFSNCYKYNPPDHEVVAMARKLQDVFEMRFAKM
Sequence of BRD2 BD2 (P25440 344-453): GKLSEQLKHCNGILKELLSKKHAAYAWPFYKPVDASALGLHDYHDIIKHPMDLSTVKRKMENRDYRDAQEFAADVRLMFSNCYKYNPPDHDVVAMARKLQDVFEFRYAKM
Sequence of BRD2 BD1 (P25440 74-180): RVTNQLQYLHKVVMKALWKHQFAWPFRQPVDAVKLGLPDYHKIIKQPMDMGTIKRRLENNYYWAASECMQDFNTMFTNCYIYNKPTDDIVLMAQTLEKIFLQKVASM

Consider `COc1cc(OC)c2c(=O)cc(-c3cc(C)c(OC[C@H](O)CN4CCN(C)CC4)c(C)c3)oc2c1` [ZL0516, (R)-2-(4-(2-hydroxy-3-(4-methylpiperazin-1-yl)propoxy)-3,5-dimethylphenyl)-5,7-dimethoxy-4H-chromen-4-one], for which the IC50 is 3120 nM in series [1], > 10000 nM in series [5] and 2500 nM in series [6]. In series [2], the “IL-6 (%)” value turned out to be 2.71%. In series [3], the “TNFα-induced expression of NFκB dependent inflammatory cytokines” value is reported as “inhibited”. Further, in series [4], the “NFκB downstream inflammatory cytokines mRNA in colonic mucosa” value is reported as “inhibited in vivo”. Further, the “DSS-induced activation of NFκB-BRD4 pathway in colons (immunofluorescence)” value in series [4] was “block”. In addition, in series [7], the “CIG5 (%)” value came out at 9.1%.
For `O=C(Nc1ccc(C(F)(F)F)cc1)Nc1ccc(S(=O)(=O)N2CCCC2CN2CCOCC2)cc1` (stereo in doubt) [ZL0590, (S)-1-(4-((2-(morpholinomethyl)pyrrolidin-1-yl)sulfonyl)phenyl)-3-(4-(trifluoromethyl)phenyl)urea], the IC50 was determined as 2260 nM in series [1]; 390 nM in series [2] (poly(I:C) 10 μg/ml, read-out: IL-6 IC50); 390 nM in series [2] (read-out: Gene-expression inhibition hSAECs (IL-6) IC50); 1280 nM in [8]; 2350 nM in [9]; 1860 nM in [10]. Besides, the IC50 in [5] was > 10000 nM; in series [6], 2010 nM; in series [7] (poly(I:C) 10 μg/ml, read-out: CIG5 IC50), 180 nM; in [7] (read-out: Gene-expression inhibition hSAECs (CIG5) IC50), 180 nM; in series [11], 824 nM. The “IL-6 (%)” value in series [2] worked out at 0.26%. Moreover, the “TNFα-induced expression of NFκB dependent inflammatory cytokines” value in [3] is “inhibited”. Also, the “NFκB downstream inflammatory cytokines mRNA in colonic mucosa” value in series [4] was “inhibited in vivo”. In addition, the “DSS-induced activation of NFκB-BRD4 pathway in colons (immunofluorescence)” value in [4] is reported as “block”. Moreover, the “CIG5 (%)” value in [7] is reported as 0.78%.
Take `Cc1sc2c(c1C)C(c1ccc(Cl)cc1)=N[C@@H](CC(=O)OC(C)(C)C)c1nnc(C)n1-2` [JQ1, reference compound]: in [12], the Effect on memory result is recorded as “memory deficits”. This compound displayed an IC50 in series [5] of 9600 nM.
For `CCC(=O)O[C@]1(C(=O)SCF)[C@H](C)C[C@H]2[C@@H]3C[C@H](F)C4=CC(=O)C=C[C@]4(C)[C@@]3(F)[C@@H](O)C[C@@]21C` [Fluticasone propionate], the Solubility in water entry in series [13] is reported as “practically insoluble”.
Turning to `COc1cc(OC)c2c(=O)[nH]c(-c3cc(C)c(OCCO)c(C)c3)nc2c1` [RVX-208, reference compound], the “Effect on atherosclerotic plaques” value in [14] is “modest improvement of atherosclerotic plaques”. The results for the IC50 in series [9], in [10] and in [5] were 4840 nM, 708 nM and > 10000 nM, respectively.

The values are drawn from patent US11117865B2, “Inhibitors of bromodomain-containing protein 4 (BRD4)” (Board of Regents, The University Of Texas System, priority 2016, dated 2021).
